The results in this text go back to patent US20100056516A1 (priority 2006, published 2010).

The target of data set [1] is HIV-1 reverse transcriptase (RNase H) (Human immunodeficiency virus type 1 group M subtype B, UniProt P04585). The data set can be described thus: ASH assay: RNase H mediated RNA cleavage (ECL format, BioVeris M384). It counts as biochemical. As to the method: Potency of a substance as an RNase H inhibitors can be determined by measuring its ability prevent RNase H catalyzed cleavage of the RNA strand in a RNA/DNA hybrid duplex substrate. RNase H activity is measured using a substrate generated by annealing the oligoribo-nucleotide 5′-rCrCrUrCrUrCrArArArArArCrArGrGrArGrCrArGrArArArGrArCrArArG (SEQ ID NO:1) to the oligodeoxyribonucleotide 5′-Biotin-[…] (SEQ ID NO:2). […] (SEQ ID NO:3). The resulting double-stranded duplex DNA product is quantitated in an ALPHA screen format using [streptavidin- and anti-fluorescein-coated beads (Packard Bioscience) following the manufacturer's guidelines and reading on a Fusion AlphaScreen instrument. Alternatively, the released 5′-Biotinylated DNA is annealed to a complementary oligodeoxyribonucleotide: 5′-ruthenium-[…] (SEQ ID NO:3). The resulting double-stranded duplex DNA product is quantitated in an ECL screen format using Dynabeads M280 coated with streptavidin (BioVeris Corporation) following the manufacturer's guidelines and reading on a BioVeris M384 Analyzer.

A further data set has as its target HIV integrase (Human immunodeficiency virus type 1 group M subtype B, UniProt P04585). The data set can be described thus: integrase strand transfer assay (STA). Format: biochemical.
For the next data set, the system named is HXB2 virus. The data set can be described thus: microbe, parasite or virus in culture. Format: cell-based, HIV. The method in brief:
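Single-cycle infectivity assay in HeLa P4-2 cells measuring inhibition of acute HIV infection, using HXB2 virus.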

Another data set has as its system HeLa P4-2 cell line. The text has this: The HeLa P4-2 cell line used in the single cycle HIV infectivity Assay B of Example 270 was also used to determine compound cytotoxicity in the absence of viral infection.
Where [2] appears, read: RNase H mediated RNA cleavage assay, Example 269, read-out: ASH (IC50).
Where [3] appears, read: integrase strand transfer, read-out: IC50 in the STA assay.
The mark [4] stands for this setting: integrase strand-transfer assay, Example 269, read-out: STA (IC50).
Where [5] appears, read: Human immunodeficiency virus 1, HXB2, HeLaP4-2, read-out: SCIA-B (IC50, μM).
Setting [6] is: Human immunodeficiency virus 1, HXB2, HeLaP4-2, read-out: antiviral IC50 (SCIA-B).
Where [7] appears, read: IC50 in the STA assay, integrase strand transfer.
Setting [8] is: STA (IC50, μM), integrase strand-transfer assay, Example 269.

SMILES strings stand for the structures. Like-named read-outs stand apart in the source and are kept apart here.

On to `O=c1c(-c2cccc(C(F)(F)F)c2)c(O)c2cccnc2n1O` [Example 28, 1,4-Dihydroxy-3-[3-(trifluoromethyl)phenyl]-1,8-naphthyridin-2(1H)-one], for which the IC50 is 0.12 µM in data set [1] (setting [2]); less than 50 µM at HIV integrase (setting [3]); 0.26 µM at HIV integrase (setting [4]); 0.22 µM in the data set with HXB2 virus (setting [5]); less than 100 µM in the data set with HXB2 virus (setting [6]). Besides, the “Cytotoxicity (LD50, μM)” value in the data set on HeLa P4-2 cell line (human) is more than 100 µM.

As to `O=c1c(-c2cccc(Cl)c2)c(O)c2cccnc2n1O` [Example 33, 3-(3-Chlorophenyl)-1,4-dihydroxy-1,8-naphthyridin-2(1H)-one], the IC50 in data set [1] (setting [2]) is 0.047 µM; on HIV integrase (setting [3]) it was less than 50 µM; on HIV integrase (setting [4]), 0.18 µM; in the data set on HXB2 virus (setting [5]), 0.66 µM; with HXB2 virus (setting [6]) it was less than 100 µM. For the same compound, the “Cytotoxicity (LD50, μM)” value in the data set with HeLa P4-2 cell line (human) was more than 100 µM.

As to `COc1cccc(-c2c(O)c3cccnc3n(O)c2=O)c1` [Example 40, 1,4-Dihydroxy-3-(3-methoxyphenyl)-1,8-naphthyridin-2(1H)-one], the IC50 in data set [1] (setting [2]) was 0.11 µM; at HIV integrase (setting [3]) it was less than 50 µM; on HIV integrase (setting [4]), 0.62 µM; with HXB2 virus (setting [5]), 0.67 µM; with HXB2 virus (setting [6]), less than 100 µM. In the data set on HeLa P4-2 cell line (human), the “Cytotoxicity (LD50, μM)” value is more than 100 µM.

Regarding `O=c1c(-c2ccccc2)c(O)c2cc(F)cnc2n1O` [Example 48, 6-Fluoro-1,4-dihydroxy-3-phenyl-1,8-naphthyridin-2(1H)-one], the IC50 in data set [1] (setting [2]) is 0.2 µM; on HIV integrase (setting [3]), less than 50 µM; on HIV integrase (setting [4]), 0.023 µM; with HXB2 virus (setting [5]), 0.14 µM; in the data set with HXB2 virus (setting [6]) it was less than 100 µM. Further, in the data set with HeLa P4-2 cell line (human), the “Cytotoxicity (LD50, μM)” value amounted to 31 µM.

With `CCOC(=O)c1c(O)c2cc(-c3cccc(CN4CCOCC4)c3)cnc2n(O)c1=O` [Example 57, Ethyl 1,4-dihydroxy-6-[3-(morpholin-4-ylmethyl)phenyl]-2-oxo-1,2-dihydro-1,8-naphthyridine-3-carboxylate], the concentration for half-maximal inhibition (IC50) in data set [1] (setting [2]) was 0.52 µM; at HIV integrase (setting [3]), less than 50 µM; on HIV integrase (setting [4]), 0.069 µM; in the data set on HXB2 virus (setting [5]), 0.1 µM; in the data set on HXB2 virus (setting [6]), less than 100 µM. Further, in the data set with HeLa P4-2 cell line (human), the “Cytotoxicity (LD50, μM)” value was determined as 36 µM.

As to `CCOC(=O)c1c(O)c2cc(-c3cccc(O)c3)cnc2n(O)c1=O` [Example 59, Ethyl 1,4-dihydroxy-6-(3-hydroxyphenyl)-2-oxo-1,2-dihydro-1,8-naphthyridine-3-carboxylate], the half-maximal inhibitory concentration (IC50) is 0.15 µM in data set [1] (setting [2]); less than 50 µM on HIV integrase (setting [3]); 0.022 µM at HIV integrase (setting [4]); 0.05 µM in the data set on HXB2 virus (setting [5]); less than 100 µM in the data set with HXB2 virus (setting [6]). Also, the “Cytotoxicity (LD50, μM)” value with HeLa P4-2 cell line (human) turned out to be 20 µM.

For the compound `O=c1c(Cc2ccccc2)c(O)c2cc(Cc3ccccc3)cnc2n1O` [Example 66, 3,6-Dibenzyl-l,4-dihydroxy-1,8-naphthyridin-2(1H)-one], the IC50 is 0.49 µM in data set [1] (setting [2]); less than 50 µM on HIV integrase (setting [3]); 0.02 µM on HIV integrase (setting [4]); 0.38 µM in the data set on HXB2 virus (setting [5]); less than 100 µM in the data set on HXB2 virus (setting [6]). Further, in the data set with HeLa P4-2 cell line (human), the “Cytotoxicity (LD50, μM)” value was 34 µM.

As for `CCOC(=O)c1c(O)c2cc(C(=O)N(C)CCc3ccccc3)cnc2n(O)c1=O` [Example 81, Ethyl 1,4-dihydroxy-6-{[methyl(2-phenylethyl)amino]carbonyl}-2-oxo-1,2-dihydro-1,8-naphthyridine-3-carboxylate], the IC50 in data set [1] (setting [2]) was 0.27 µM; on HIV integrase (setting [3]) it was less than 50 µM; on HIV integrase (setting [4]), 0.027 µM; in the data set with HXB2 virus (setting [5]), 0.06 µM; with HXB2 virus (setting [6]), less than 100 µM. In addition, the “Cytotoxicity (LD50, μM)” value with HeLa P4-2 cell line (human) is more than 100 µM.

Consider `O=c1cc(Nc2ccc(-c3ccccc3)cc2)c2cccnc2n1O` [Example 106, 4-(Biphenyl-4-ylamino)-1-hydroxy-1,8-naphthyridin-2(1H)-one], for which the IC50 in data set [1] is 0.088 µM; against HIV integrase (setting [7]), less than 50 µM; against HIV integrase (setting [8]) it was 0.22 µM; in the data set with HXB2 virus (setting [5]), 0.43 µM; in the data set on HXB2 virus (setting [6]), less than 100 µM. In addition, the “Cytotoxicity (LD50, μM)” value with HeLa P4-2 cell line (human) was 12 µM.

Take `O=c1cc(NCc2ccc(CN3CCOCC3)cc2)c2cccnc2n1O` [Example 111, 1-Hydroxy-4-{[4-(morpholin-4-ylmethyl)benzyl]amino}-1,8-naphthyridin-2(1H)-one]: the concentration for half-maximal inhibition (IC50) in data set [1] was 0.046 µM; against HIV integrase (setting [7]) it was less than 50 µM; against HIV integrase (setting [8]), 1.8 µM; in the data set on HXB2 virus (setting [5]), 0.12 µM; in the data set on HXB2 virus (setting [6]), less than 100 µM. Besides, the “Cytotoxicity (LD50, μM)” value with HeLa P4-2 cell line (human) is more than 100 µM.

`O=c1cc(NCc2cccc(N3CCOCC3)n2)c2cccnc2n1O` [Example 115, 1-hydroxy-4-{[(6-morpholin-4-ylpyridin-2-yl)methyl]amino}-1,8-naphthyridin-2(1H)-one]: the IC50 in data set [1] is 0.18 µM; against HIV integrase (setting [7]), less than 50 µM; on HIV integrase (setting [8]) it was 1.9 µM; with HXB2 virus (setting [5]) it was 0.11 µM; with HXB2 virus (setting [6]) it was less than 100 µM. The “Cytotoxicity (LD50, μM)” value in the data set on HeLa P4-2 cell line (human) was 8.6 µM.

For `COC(=O)c1ccc2c(c1)CCN(c1cc(=O)n(O)c3ncccc13)C2` [Example 121, 4-[6-(methoxycarbonyl)-3,4-dihydroisoquinolin-2(1H)-yl]-1-hydroxy-1,8-naphthyridin-2(1H)-one], the concentration for half-maximal inhibition (IC50) in data set [1] is 0.15 µM; against HIV integrase (setting [7]), less than 50 µM; on HIV integrase (setting [8]), 0.6 µM; in the data set with HXB2 virus (setting [5]), 0.26 µM; in the data set on HXB2 virus (setting [6]), less than 100 µM. The “Cytotoxicity (LD50, μM)” value with HeLa P4-2 cell line (human) came to 16 µM.

In the case of `O=c1cc(N2CCc3ncccc3C2)c2cccnc2n1O` [Example 123, 4-(7,8-dihydro-1,6-naphthyridin-6(5H)-yl)-1-hydroxy-1,8-naphthyridin-2(1H)-one], the 50% inhibitory concentration (IC50) was 0.11 µM in data set [1] (setting [2]); less than 50 µM on HIV integrase (setting [3]); 2.4 µM on HIV integrase (setting [4]); 0.42 µM in the data set on HXB2 virus (setting [5]); less than 100 µM in the data set on HXB2 virus (setting [6]). The “Cytotoxicity (LD50, μM)” value with HeLa P4-2 cell line (cytotoxicity test B, Alamar Blue, HeLa P4-2 cells, no virus, tested up to 100 micromolar) came out at 8.7 µM.

Regarding `C[C@H](Nc1cc(=O)n(O)c2ncccc12)c1ccccc1` [Example 124, 1-hydroxy-4-{[(1S)-1-phenylethyl]amino}-1,8-naphthyridin-2(1H)-one], the 50% inhibitory concentration (IC50) in data set [1] was 0.23 µM; against HIV integrase (setting [7]), less than 50 µM; against HIV integrase (setting [8]), 0.66 µM; with HXB2 virus (setting [5]) it was 0.16 µM; in the data set with HXB2 virus (setting [6]), less than 100 µM. Further, the “Cytotoxicity (LD50, μM)” value with HeLa P4-2 cell line (human) came to 50 µM.

For the compound `O=c1cc(NC2CCc3ccccc32)c2cccnc2n1O` (stereo not drawn) [Example 134, 4-(2,3-dihydro-1H-inden-1-ylamino)-1-hydroxy-1,8-naphthyridin-2(1H)-one], the half-inhibitory concentration (IC50) in data set [1] is 0.091 µM; against HIV integrase (setting [7]), less than 50 µM; against HIV integrase (setting [8]), 0.36 µM; with HXB2 virus (setting [5]), 0.034 µM; with HXB2 virus (setting [6]), less than 100 µM. For the same compound, the “Cytotoxicity (LD50, μM)” value in the data set on HeLa P4-2 cell line (human) was 23 µM.

As for `O=c1cc(NC2CCCc3ccccc32)c2cccnc2n1O` (stereo not drawn) [Example 135, 1-hydroxy-4-(1,2,3,4-tetrahydronaphthalen-1-ylamino)-1,8-naphthyridin-2(1H)-one], the half-inhibitory concentration (IC50) was 0.061 µM in data set [1]; less than 50 µM on HIV integrase (setting [7]); 0.19 µM against HIV integrase (setting [8]); 0.5 µM in the data set on HXB2 virus (setting [5]); less than 100 µM in the data set with HXB2 virus (setting [6]). For the same compound, the “Cytotoxicity (LD50, μM)” value with HeLa P4-2 cell line (human) was more than 100 µM.

With `COc1ccc(CNc2cc(=O)n(O)c3ncccc23)cc1` [Example 140, 1-hydroxy-4-[(4-methoxybenzyl)amino]-1,8-naphthyridin-2(1H-one)], the 50% inhibitory concentration (IC50) in data set [1] is 0.11 µM; on HIV integrase (setting [7]) it was less than 50 µM; against HIV integrase (setting [8]), 0.22 µM; with HXB2 virus (setting [5]) it was 0.09 µM; with HXB2 virus (setting [6]) it was less than 100 µM. Besides, the “Cytotoxicity (LD50, μM)” value in the data set on HeLa P4-2 cell line (human) worked out at 5 µM.

In the case of `COc1ccccc1CNc1cc(=O)n(O)c2ncccc12` [Example 142, 1-hydroxy-4-[(2-methoxybenzyl)amino]-1,8-naphthyridin-2(1H-one)], the half-maximal inhibitory concentration (IC50) in data set [1] is 0.084 µM; on HIV integrase (setting [7]) it was less than 50 µM; against HIV integrase (setting [8]) it was 0.56 µM; in the data set with HXB2 virus (setting [5]), 0.09 µM; in the data set with HXB2 virus (setting [6]), less than 100 µM. Besides, the “Cytotoxicity (LD50, μM)” value in the data set with HeLa P4-2 cell line (human) stood at 4.4 µM.

As for `O=c1cc(Nc2ccccc2N2CCOCC2)c2cccnc2n1O` [Example 147, 1-hydroxy-4-{[2-(4-morpholinyl)phenyl]amino}-1,8-naphthyridin-2(1H-one)], the concentration for half-maximal inhibition (IC50) is 0.017 µM in data set [1]; less than 50 µM against HIV integrase (setting [7]); 0.22 µM at HIV integrase (setting [8]); 0.2 µM in the data set on HXB2 virus (setting [5]); less than 100 µM in the data set with HXB2 virus (setting [6]). Besides, the “Cytotoxicity (LD50, μM)” value in the data set on HeLa P4-2 cell line (human) amounted to 7.7 µM.

By IC50 is commonly meant the concentration that inhibits the measured activity by half.
